What was measured:
Format in all cases: cell-based
Proteus mirabilis = experiment: MIC against Gram-negative bacteria: Proteus mirabilis
In short: (§1)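 Inocula prepared by growing LB cultures at 37° C to 0.5 McFarland, centrifuging at 4000×g, and resuspending in fresh medium. Final density 5×10^5 CFU/mL per well with two-fold dilutions of purified EGF domain protein; shaking incubation at 37° C.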

Serratia marcescens = experiment: MIC against Gram-negative bacteria: Serratia marcescens
In short: as §1

Pseudomonas aeruginosa = experiment: MIC against Gram-negative bacteria: Pseudomonas aeruginosa
In short: as §1

E. coli DH5α = experiment: Antibacterial activity: MIC and growth curve against E. coli DH5α in 96-well plate; conditions: minimal inhibitory concentration against E. coli DH5α; 96-well plate, 5×10^5 CFU/mL, 37° C., judged after 8 h
In short: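 Log-phase bacteria (OD600 ~0.5) resuspended in LB at 5×10^5 CFU/mL, exposed to recombinant protein at 50, 25, 12.5 μg/mL final in triplicate, 37 °C shaking at 175 rpm. OD600 read every 30 min; MIC is lowest concentration showing no growth.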

Klebsiella pneumonia = experiment: MIC against Gram-negative bacteria: Klebsiella pneumonia
In short: as §1

Proteus vulgaris = experiment: MIC against Gram-negative bacteria: Proteus vulgaris
In short: as §1

E. coli BL21 = experiment: MIC against Gram-negative bacteria: E. coli BL21
In short: as §1

Enterobacter cloacae = experiment: MIC against Gram-negative bacteria: Enterobacter cloacae
In short: as §1

Citrobacter diversus = experiment: MIC against Gram-negative bacteria: Citrobacter diversus
In short: as §1

Moraxella catarrhalis = experiment: MIC against Gram-negative bacteria: Moraxella catarrhalis
In short: as §1

Aeromonas hydrophila = experiment: MIC against Gram-negative bacteria: Aeromonas hydrophila
In short: as §1

[1] = P. mirabilis, 10 h cultivation at 37° C.
[2] = S. marcescens, 10 h cultivation at 37° C.
[3] = P. aeruginosa, 10 h cultivation at 37° C.
[4] = K. pneumonia, 10 h cultivation at 37° C.
[5] = P. vulgaris, 10 h cultivation at 37° C.
[6] = E. coli BL21, 10 h cultivation at 37° C.
[7] = E. cloacae, 10 h cultivation at 37° C.
[8] = C. diversus, 10 h cultivation at 37° C.
[9] = M. catarrhalis, 10 h cultivation at 37° C.
[10] = A. hydrophila, 10 h cultivation at 37° C.
[11] = 10 h cultivation at 37° C., 5×10^5 CFU/mL, two-fold serial dilution

Substance: PRT1259 (CAVNNGGCDRTCKDTATGVRCSCPVGFTLQPDGKTC; listed as Homo sapiens)
- MIC against P. mirabilis (Proteus mirabilis; Proteus mirabilis, 96-well plate, 5×10^5 CFU/mL, 37° C., 10 h): 12.5 µg/mL
- MIC against S. marcescens (Serratia marcescens; Serratia marcescens, 96-well plate, 5×10^5 CFU/mL, 37° C., 10 h): 12.5 µg/mL
- MIC against P. aeruginosa (Pseudomonas aeruginosa; Pseudomonas aeruginosa, 96-well plate, 5×10^5 CFU/mL, 37° C., 10 h): 25 µg/mL
- MIC (E. coli DH5α): 25 µg/mL
- MIC against K. pneumonia (Klebsiella pneumonia; Klebsiella pneumonia, 96-well plate, 5×10^5 CFU/mL, 37° C., 10 h): 12.5 µg/mL
- MIC against P. vulgaris (Proteus vulgaris; Proteus vulgaris, 96-well plate, 5×10^5 CFU/mL, 37° C., 10 h): 50 µg/mL
- MIC against E. coli BL21 (E. coli BL21; E. coli BL21, 96-well plate, 5×10^5 CFU/mL, 37° C., 10 h): 50 µg/mL
- MIC against E. cloacae (Enterobacter cloacae; Enterobacter cloacae, 96-well plate, 5×10^5 CFU/mL, 37° C., 10 h): 25 µg/mL
- MIC against C. diversus (Citrobacter diversus; Citrobacter diversus, 96-well plate, 5×10^5 CFU/mL, 37° C., 10 h): 12.5 µg/mL
- MIC against M. catarrhalis (Moraxella catarrhalis; Moraxella catarrhalis, 96-well plate, 5×10^5 CFU/mL, 37° C., 10 h): 50 µg/mL
- MIC against A. hydrophila (Aeromonas hydrophila; Aeromonas hydrophila, 96-well plate, 5×10^5 CFU/mL, 37° C., 10 h): 50 µg/mL

Substance: PRT1012 (APKGCGPPSPCLYNGSCSETTGLGGPGFRCSCPHSSPGPRCQ; listed as Homo sapiens)
- MIC (Proteus mirabilis; [1]): 12.5 µg/mL
- MIC (Serratia marcescens; [2]): 12.5 µg/mL
- MIC (Pseudomonas aeruginosa; [3]): 12.5 µg/mL
- MIC (E. coli DH5α): 12.5 µg/mL
- MIC (Klebsiella pneumonia; [4]): 12.5 µg/mL
- MIC (Proteus vulgaris; [5]): 25 µg/mL
- MIC (E. coli BL21; [6]): 50 µg/mL
- MIC (Enterobacter cloacae; [7]): 50 µg/mL
- MIC (Citrobacter diversus; [8]): 50 µg/mL
- MIC (Moraxella catarrhalis; [9]): 12.5 µg/mL
- MIC (Aeromonas hydrophila; [10]): 12.5 µg/mL

Substance: PRT1021 (LQNPCYIGTHGCDTNAACRPGPRTQFTCECSIGFRGDGRTCY; listed as Homo sapiens)
- MIC (Proteus mirabilis; [1]): 50 µg/mL
- MIC (Serratia marcescens; [2]): 50 µg/mL
- MIC (Pseudomonas aeruginosa; [3]): 25 µg/mL
- MIC (E. coli DH5α): 25 µg/mL
- MIC (Klebsiella pneumonia; [4]): 50 µg/mL
- MIC (Proteus vulgaris; [5]): 12.5 µg/mL
- MIC (E. coli BL21; [6]): 12.5 µg/mL
- MIC (Enterobacter cloacae; [7]): 25 µg/mL
- MIC (Citrobacter diversus; [8]): 50 µg/mL
- MIC (Moraxella catarrhalis; [9]): 12.5 µg/mL
- MIC (Aeromonas hydrophila; [10]): 12.5 µg/mL

Substance: PRT821 (DVDECRTHNGGCQHRCVNTPGSYLCECKPGFRLHTDSRTCL; listed as Homo sapiens)
- MIC (μg/mL) P. mirabilis (Proteus mirabilis; P. mirabilis, 10 h cultivation at 37° C., 5×10^5 CFU/mL): 50 µg/mL
- MIC (μg/mL) S. marcescens (Serratia marcescens; S. marcescens, 10 h cultivation at 37° C., 5×10^5 CFU/mL): 50 µg/mL
- MIC (μg/mL) P. aeruginosa (Pseudomonas aeruginosa; P. aeruginosa, 10 h cultivation at 37° C., 5×10^5 CFU/mL): 12.5 µg/mL
- MIC (E. coli DH5α): 12.5 µg/mL
- MIC (μg/mL) K. pneumonia (Klebsiella pneumonia; K. pneumonia, 10 h cultivation at 37° C., 5×10^5 CFU/mL): 25 µg/mL
- MIC (μg/mL) P. vulgaris (Proteus vulgaris; P. vulgaris, 10 h cultivation at 37° C., 5×10^5 CFU/mL): 12.5 µg/mL
- MIC (μg/mL) E. coli BL21 (E. coli BL21; E. coli BL21, 10 h cultivation at 37° C., 5×10^5 CFU/mL): 12.5 µg/mL
- MIC (μg/mL) E. cloacae (Enterobacter cloacae; E. cloacae, 10 h cultivation at 37° C., 5×10^5 CFU/mL): 25 µg/mL
- MIC (μg/mL) C. diversus (Citrobacter diversus; C. diversus, 10 h cultivation at 37° C., 5×10^5 CFU/mL): 25 µg/mL
- MIC (μg/mL) M. catarrhalis (Moraxella catarrhalis; M. catarrhalis, 10 h cultivation at 37° C., 5×10^5 CFU/mL): 12.5 µg/mL
- MIC (μg/mL) A. hydrophila (Aeromonas hydrophila; A. hydrophila, 10 h cultivation at 37° C., 5×10^5 CFU/mL): 50 µg/mL

Substance: PRT957 (APPCLDGSPCANGGRCTQLPSREAACLCPPGWVGERCQ; listed as Homo sapiens)
- MIC (Proteus mirabilis; [1]): 25 µg/mL
- MIC (Serratia marcescens; [2]): 12.5 µg/mL
- MIC (Pseudomonas aeruginosa; [3]): 50 µg/mL
- MIC (E. coli DH5α): 12.5 µg/mL
- MIC (Klebsiella pneumonia; [4]): 25 µg/mL
- MIC (Proteus vulgaris; [5]): 50 µg/mL
- MIC (E. coli BL21; [6]): 25 µg/mL
- MIC (Enterobacter cloacae; [7]): 12.5 µg/mL
- MIC (Citrobacter diversus; [8]): 50 µg/mL
- MIC (Moraxella catarrhalis; [9]): 12.5 µg/mL
- MIC (Aeromonas hydrophila; [10]): 25 µg/mL

Substance: PRT935 (NIDECASNPCLNQGTCFDDISGYTCHCVLPYTGKNCQ; listed as Homo sapiens)
- MIC (Proteus mirabilis; [1]): 12.5 µg/mL
- MIC (Serratia marcescens; [2]): 12.5 µg/mL
- MIC (Pseudomonas aeruginosa; [3]): 25 µg/mL
- MIC (E. coli DH5α): 12.5 µg/mL
- MIC (Klebsiella pneumonia; [4]): 12.5 µg/mL
- MIC (Proteus vulgaris; [5]): 12.5 µg/mL
- MIC (E. coli BL21; [6]): 25 µg/mL
- MIC (Enterobacter cloacae; [7]): 25 µg/mL
- MIC (Citrobacter diversus; [8]): 100 µg/mL
- MIC (Moraxella catarrhalis; [9]): 12.5 µg/mL
- MIC (Aeromonas hydrophila; [10]): 25 µg/mL

Substance: PRT1097 (NIDECFSNPCIHGNCSDRVAAYHCTCEPGYTGVNCE; listed as Homo sapiens)
- MIC P. mirabilis (Proteus mirabilis; [11]): 25 µg/mL
- MIC S. marcescens (Serratia marcescens; [11]): 25 µg/mL
- MIC P. aeruginosa (Pseudomonas aeruginosa; [11]): 25 µg/mL
- MIC (E. coli DH5α): 25 µg/mL
- MIC K. pneumonia (Klebsiella pneumonia; [11]): 12.5 µg/mL
- MIC P. vulgaris (Proteus vulgaris; [11]): 12.5 µg/mL
- MIC E. coli BL21 (E. coli BL21; [11]): 12.5 µg/mL
- MIC E. cloacae (Enterobacter cloacae; [11]): 25 µg/mL
- MIC C. diversus (Citrobacter diversus; [11]): 25 µg/mL
- MIC M. catarrhalis (Moraxella catarrhalis; [11]): 100 µg/mL
- MIC A. hydrophila (Aeromonas hydrophila; [11]): 12.5 µg/mL

Reference: patent US9833497B2, “Human originated EGF domain proteins and use of the same” (CHENGDU SOURCEBIO LIMITED-LIABILITY COMPANY, priority 2013, dated 2017)
